Key:
[1] = Pharmacokinetics in SD rats, single IV injection; format: in vivo, Sprague-Dawly (SD) rats; details: for AUClast / AUC∞ / Clearance / Observed Cmax / Terminal Elimination Half-Life: analyte (S)-YK-4-279 in plasma
Procedure: (§1) To optimize dosing in animals, we determined the pharmacokinetics of YK-4-279 and its single enantiomers in Sprague-Dawly (SD) rats. Three rats of each gender were assigned to nine dose groups. Animals in Groups 1 through 3 received a single intravenous (IV) injection of racemic mixture, (S)-YK-4-279, or (R)-YK-4-279 at a dose of 25 mg/kg. Animals in Groups 4 through 9 received a single oral gavage administration of racemic mixture, (S)-YK-4-279, or (R)-YK-4-279 at a dosage level of 25 or 50 mg/kg. […] However, given that approximately 50 percent of the racemic mixture is (S)-YK-4-279 and the clearance […] the dose, the IV clearance of (S)-YK-4-279 is considered to be similar whether a racemic mixture or only (S)-YK-4-279 is administered. Systemic exposure to (S)-YK-4-279 was evaluated using Cmax and AUC values. Cmax and AUC8 values were similar between males and females for a given dose group. With an expected enantiomer ratio of 1:1 in the racemic dose, Group 2 animals would have received a 2-fold higher dose of (S)-YK-4-279 than Group 1 animals. […] Absolute bioavailability of (S)-YK-4-279 following gavage administration, using cremophor/ethanol as an excipient, in SD rats was only 2–6% (Table 2).
(§2) Nine SD rats of each gender were assigned to nine dose groups. Groups 1 through 3 received a single IV injection of racemic mixture, (S)-YK-4-279, or (R)-YK-4-279 at a dose of 25 mg/kg. Groups 4 through 9 received a single gavage administration of racemic mixture, (S)-YK-4-279, or (R)-YK-4-279 at a dosage level of 25 or 50 mg/kg. Blood samples were collected from one animal per group per time point at target time points of pre-dose, 5, 15, 30 and 60 minutes, and 2, 4, 8 and 12 hours following dosing. Plasma was obtained from the samples and analyzed for (S) and (R)-YK-4-279 concentrations.
(§3) The plasma and tumor sample analysis was performed using calibration standards and Quality Control (QC) samples prepared in control rat or mouse plasma and tumor tissues. Plasma and tumor calibration standards were prepared from stock solutions of YK-4-279. The calibration standards, blanks, QC samples, and study samples were then processed by solid-liquid extraction (SLE) followed by analysis using liquid chromatography with mass spectrometry (LC-MS). The LC-MS systems used for the analysis of YK-4-279 was composed of Shimadzo prominence pump and auto-sampler (Kyoto, Japan), a Sciex API 5000 MS (Toronto, Ontario), with turbo ion spary in the positive ion mode. The samples for the analysis of total YK-4-279 were injected into a 50 × 2 mm Gemini- NX, 5 ¼m column (Phenomenex, Torrance, CA). The samples for the analysis of the specific enantiomers of YK-4-279 were injected into a 150 × 2 mm Lux Cellulose-2, 3 ¼m Phenomenex column. The transitions monitored were 366 amu to 135 amu for YK-4-279 and 369 amu to 138 amu for the YK-4-279-d3 internal standard. YK-4-279 concentrations were calculated using peak area response ratios and a regression equation constructed from the concentrations and peak area response ratios of the calibration standards. The lower limit of quantitation was 5.0 ng/mL in plasma and […] in tumor tissue. The concentration-time profiles were evaluated by compartmental modeling and non-compartmental analysis using WinNonlin (Pharsight Corporation, Mountain View, CA). The PK parameters obtained from the compartmental modeling were used in simulations to identify optimal dose level and dosing schedule for maintaining plasma concentration of (S)-YK-4-279 above 3 ¼M.

[2] = Pharmacokinetics in SD rats, single oral gavage; format: in vivo, Sprague-Dawly (SD) rats; details: analyte (S)-YK-4-279 in plasma
Procedure: as §1, §2, §3

[3] = SD rats, female (n=9), single IV injection 25 mg/kg
[4] = SD rats, male (n=9), single IV injection 25 mg/kg
[5] = female (n=9), oral gavage 25 mg/kg
[6] = female (n=9), oral gavage 50 mg/kg
[7] = male (n=9), oral gavage 25 mg/kg
[8] = male (n=9), oral gavage 50 mg/kg
[9] = SD rats, single IV injection 25 mg/kg, average of males and females, analyte (S)-YK-4-279

SMILES	AUClast [1, 3]	AUC∞ [1, 3]	Clearance [1, 3]	Observed Cmax [1, 3]	Terminal Elimination Half-Life [1, 3]	AUClast [1, 4]	AUC∞ [1, 4]	Clearance [1, 4]	Observed Cmax [1, 4]	Terminal Elimination Half-Life [1, 4]	AUClast [2, 5]	AUC∞ [2, 5]	Absolute Bioavailability [2, 5]	Apparent Clearance [2, 5]	Observed Cmax [2, 5]	Observed Tmax [2, 5]	Terminal Elimination Half-Life [2, 5]	AUClast [2, 6]	AUC∞ [2, 6]	Absolute Bioavailability [2, 6]	other results
COc1ccc(C(=O)C[C@]2(O)C(=O)Nc3c(Cl)ccc(Cl)c32)cc1 [(R)-YK-4-279]	BLOQ	BLOQ	BLOQ	BLOQ	BLOQ	BLOQ	BLOQ	BLOQ	BLOQ1	BLOQ	BLOQ	BLOQ	BLOQ	BLOQ	BLOQ	BLOQ	BLOQ	BLOQ	BLOQ	BLOQ	Clearance slower than the clearance of (S)-YK-4-279 ([1]; SD rats (Supplemental table 1, not available)): approximately 25%; Apparent Clearance [2, 6]: BLOQ; Observed Cmax [2, 6]: BLOQ; Observed Tmax [2, 6]: BLOQ; Terminal Elimination Half-Life [2, 6]: BLOQ; AUClast [2, 7]: BLOQ; AUC∞ [2, 7]: BLOQ; Absolute Bioavailability [2, 7]: BLOQ; Apparent Clearance [2, 7]: BLOQ; Observed Cmax [2, 7]: BLOQ1; Observed Tmax [2, 7]: BLOQ; Terminal Elimination Half-Life [2, 7]: BLOQ; AUClast [2, 8]: BLOQ; AUC∞ [2, 8]: BLOQ; Absolute Bioavailability [2, 8]: BLOQ; Apparent Clearance [2, 8]: BLOQ; Observed Cmax [2, 8]: BLOQ; Observed Tmax [2, 8]: BLOQ; Terminal Elimination Half-Life [2, 8]: BLOQ
COc1ccc(C(=O)CC2(O)C(=O)Nc3c(Cl)ccc(Cl)c32)cc1 (stereo not shown) [YK-4-279]	25.6 hr*¼M	25.9 hr*¼M	44 mL/min/kg	37.1 ¼M	0.602 h	26.5 hr*¼M	26.7 hr*¼M	42.67 mL/min/kg	39.9 ¼M	0.564 h	1.07 hr*¼M	1.31 hr*¼M	5.06%	52,200 mL/hr/kg	0.513 ¼M	0.500 h	1.56 h	3.09 hr*¼M	3.14 hr*¼M	6.07%	Average clearance [1, 9]: 43.33 mL/min/kg; Average elimination half-life [1, 9]: 0.583 h; Apparent Clearance [2, 6]: 43,400 mL/hr/kg; Observed Cmax [2, 6]: 0.647 ¼M; Observed Tmax [2, 6]: 0.500 h; Terminal Elimination Half-Life [2, 6]: 1.97 h; AUClast [2, 7]: 0.563 hr*¼M; AUC∞ [2, 7]: 0.754 hr*¼M; Absolute Bioavailability [2, 7]: 2.83%; Apparent Clearance [2, 7]: 90,300 mL/hr/kg; Observed Cmax [2, 7]: 0.142 ¼M; Observed Tmax [2, 7]: 1.00 h; Terminal Elimination Half-Life [2, 7]: 3.84 h; AUClast [2, 8]: 1.04 hr*¼M; AUC∞ [2, 8]: 1.18 hr*¼M; Absolute Bioavailability [2, 8]: 2.21%; Apparent Clearance [2, 8]: 116,000 mL/hr/kg; Observed Cmax [2, 8]: 0.241 ¼M; Observed Tmax [2, 8]: 2.00 h; Terminal Elimination Half-Life [2, 8]: 4.23 h

Source: paper PMC3964211, “Pharmacokinetic modeling optimizes inhibition of the ‘undruggable’ EWS-FLI1 transcription factor in Ewing Sarcoma” (Oncotarget, 2013)
